In patent publication US20040063686A1, “Carboxamide compounds and their use as antagonists of a human 11cby receptor” (priority 2000, published 2004):

molecular target: T1, 11CBy receptors (Homo sapiens, UniProt Q99705); experiment: Radioligand binding assay, [125I]-Melanin Concentrating Hormone competition on membranes from HEK293 cells stably expressing 11CBy receptors; conditions: [125I]-MCH 0.22 nM, 45 min at 37° C., pH 7.4, pKi calculated from IC50
T1 construct: expressed in transfected cells; washed membranes
Experimental: The activity of the compounds used in this invention may be assessed by competitive binding assays to 11CBy receptors, as follows:
Radioligand Binding Studies
Radioligand binding assays were carried out on well washed membranes from HEK293 cells stably expressing 11CBy receptors. […] Non-specific binding was defined using 0.1 mM Melanin Concentrating Hormone (obtained from Bachem). The test compounds were added at concentrations between […] and 10 pM in 10 concentration steps. Following incubation, the reaction was stopped by filtration through GF/B filters and washed with 4×1 ml of ice-cold 50 mM Tris buffer. Microscint 20 (Packard) was added to the filters and the radioactivity measured using a Packard TopCount.
Bound cpm in the presence of test compound was expressed as a fraction of the bound cpm in the absence of test compound and plotted against the concentration of compound. From this an IC50 was determined from which the pKi was calculated.

T1 sequence (Q99705 whole entry): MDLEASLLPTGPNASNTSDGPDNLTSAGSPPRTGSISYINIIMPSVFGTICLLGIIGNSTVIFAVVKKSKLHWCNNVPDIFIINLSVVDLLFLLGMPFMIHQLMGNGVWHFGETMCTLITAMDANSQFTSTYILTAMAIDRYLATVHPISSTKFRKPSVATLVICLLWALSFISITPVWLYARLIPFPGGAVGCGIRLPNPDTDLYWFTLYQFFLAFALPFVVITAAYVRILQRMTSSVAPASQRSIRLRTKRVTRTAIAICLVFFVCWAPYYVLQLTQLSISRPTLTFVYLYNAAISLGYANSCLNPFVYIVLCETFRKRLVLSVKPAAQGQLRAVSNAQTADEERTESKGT

| Compound | pKi range |
| --- | --- |
| Biphenyl-4-carboxylic acid [4-((R)-diethylamino-hydroxy-propoxy)-3-methoxy-phenyl]-amide [Example G1] | 7.1-7.4 |

same assay, conditions: [125I]-MCH 0.22 nM, 45 min at 37° C., pH 7.4, pKi calculated from IC50, read-out: pKi range (converted)

| Compound | Ki |
| --- | --- |
| CCN(CC)CCOc1ccc(N(C)C(=O)c2ccc(-c3ccccc3)cc2)cc1OC [Example E9, Biphenyl-4-carboxylic acid [4-(2-diethylamino-ethoxy)-3-methoxy-phenyl]-methyl-amide] | 15.8 to 31.6 nM |
| COc1cc(NC(=O)c2ccc(C3CCCCC3)cc2)ccc1OC[C@@H]1CCCN1C [Example A48] | 15.8 to 31.6 nM |
| COc1cc(NC(=O)c2ccc(-c3ccccc3)cc2Cl)ccc1OCCN(C(C)C)C(C)C [Example C8] | 39.8 to 79.4 nM |

Results, then the compound that gave them:

| Ki | Compound |
| --- | --- |
| 39.8 to 79.4 nM | COc1cc(NC(=O)c2ccc(C3CCCCC3)cc2)ccc1N1CCN(C)CC1 [Example H1, 4-Cyclohexyl-N-[3-methoxy-4-(4-methyl-piperazin-1-yl)-phenyl]-benzamide] |
| 39.8 to 79.4 nM | COc1cc(NC(=O)c2ccc(-c3ccccc3)nc2)ccc1OCCN(C(C)C)C(C)C [Example F4] |
